Numbers after ± are expanded uncertainties.

Data set [1] is described as follows: refractive index (Na D-line) (dimensionless). The conditions noted are these: 313.15 K; 101.33 kPa; Liquid; refractometer.
The conditions of data set [2]: 313.15 K; 101.33 kPa; Liquid; Vibrating tube method.

In general, refractive index refers to the speed of light in vacuum divided by its phase velocity in the sample. A word on the mass density: it is the mass of a sample divided by its volume. As to `CCOC(=O)OCC` [diethyl carbonate], in data set [1], the refractive index is recorded as 1.3754 ± 0.0001. Besides, the mass density in data set [2] turned out to be 952.43 ± 0.08 kg/m3.

For the molecule `COC(=O)OC` [dimethyl carbonate], the refractive index in data set [1] was determined as 1.359 ± 0.0001. Further, the mass density in data set [2] worked out at 1043.19 ± 0.08 kg/m3.

These data come from the NIST ThermoML archive (doi:10.1021/je034159d).
